Measured values published in PubChem BioAssay AID248 (DTP/NCI, 2004).
Where “and” joins values, the source holds several entries; their conditions need not be identical. Equal values may be shown once. Toxic doses and inconclusive results are not listed. Rule as the data show it: active = T/C of 150% or more; inactive = T/C below 125%.

System: L1210 leukemia ip in BDF1 mice, survival T/C
Assay: NCI In Vivo Anticancer Drug Screen. Data for tumor model L1210 Leukemia (intraperitoneal) in B6D2F1 (BDF1) mice
Conditions: endpoint: mean survival time, higher = longer survival
In short: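 Tumor cells were implanted, animals were treated, and survival was followed. The result divides the treated measurement by the vehicle-control measurement.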

[1] = dose: 100.0 mg/kg/injection, schedule: Q01DX009 (ip), vehicle: Klucel (hydroxypropylcellulose) (HPC)
[2] = dose: 100.0 mg/kg/injection, schedule: Q04DX003 (ip), vehicle: Klucel (hydroxypropylcellulose) (HPC)
[3] = dose: 200.0 mg/kg/injection, schedule: Q01DX009 (ip), vehicle: Klucel (hydroxypropylcellulose) (HPC)
[4] = dose: 200.0 mg/kg/injection, schedule: Q04DX003 (ip), vehicle: Klucel (hydroxypropylcellulose) (HPC)
[5] = dose: 400.0 mg/kg/injection, schedule: Q01DX009 (ip), vehicle: Klucel (hydroxypropylcellulose) (HPC)
[6] = dose: 400.0 mg/kg/injection, schedule: Q04DX003 (ip), vehicle: Klucel (hydroxypropylcellulose) (HPC)
[7] = dose: 75.0 mg/kg/injection, schedule: Q01DX001 (ip), vehicle: other
[8] = dose: 150.0 mg/kg/injection, schedule: Q01DX001 (ip), vehicle: other
[9] = dose: 50.0 mg/kg/injection, schedule: Q01DX009 (ip), vehicle: saline
[10] = dose: 100.0 mg/kg/injection, schedule: Q01DX009 (ip), vehicle: saline
[11] = dose: 100.0 mg/kg/injection, schedule: Q04DX003 (ip), vehicle: saline
[12] = dose: 200.0 mg/kg/injection, schedule: Q04DX003 (ip), vehicle: saline
[13] = dose: 400.0 mg/kg/injection, schedule: Q04DX003 (ip), vehicle: saline
[14] = dose: 100.0 mg/kg/injection, schedule: Q01DX001 (ip), vehicle: saline
[15] = dose: 200.0 mg/kg/injection, schedule: Q01DX001 (ip), vehicle: saline
[16] = dose: 400.0 mg/kg/injection, schedule: Q01DX001 (ip), vehicle: saline
[17] = dose: 100.0 mg/kg/injection, schedule: Q04DX003 (ip), vehicle: saline with Tween-80
[18] = dose: 200.0 mg/kg/injection, schedule: Q04DX003 (ip), vehicle: saline with Tween-80
[19] = dose: 400.0 mg/kg/injection, schedule: Q04DX003 (ip), vehicle: saline with Tween-80

Measured: T/C

O=C(OCCOCCOCCOC(=O)c1ccccc1)c1ccccc1
inactive: [1] 96 % of control | [2] 112 % of control | [3] 96 % of control | [4] 102 % of control | [5] 102 % of control | [6] 99 % of control

CC1=C(C)CC2(C)N(C)CC2(C)C1 (stereo not drawn)
inactive: dose: 37.0 mg/kg/injection, schedule: Q04DX003 (ip), vehicle: other 104 % of control | dose: 37.5 mg/kg/injection, schedule: Q01DX009 (ip), vehicle: other 110 % of control | [7] 107 % of control | dose: 75.0 mg/kg/injection, schedule: Q01DX009 (ip), vehicle: other 100 % of control | dose: 75.0 mg/kg/injection, schedule: Q04DX003 (ip), vehicle: other 101 % of control | [8] 115 % of control | dose: 150.0 mg/kg/injection, schedule: Q01DX009 (ip), vehicle: other 93 % of control | dose: 150.0 mg/kg/injection, schedule: Q04DX003 (ip), vehicle: other 106 % of control

Cc1ccc(S(=O)(=O)N/N=C2\C(=O)C3CCC2C3Cl)cc1 (stereo not drawn)
inactive: [7] 89 % of control | [8] 92 % of control

O=C(/C=C/c1ccc(Cl)c(Cl)c1)c1ccccc1[N+](=O)[O-]
inactive: [1] 103 % of control | [3] 97 % of control | [5] 92 % of control

O=C(O)/C(Cc1cn[nH]n1)=N\O
inactive: dose: 100.0 mg/kg/injection, schedule: Q01DX001 (ip), vehicle: other 95 % of control | dose: 200.0 mg/kg/injection, schedule: Q01DX001 (ip), vehicle: other 101 % of control | dose: 400.0 mg/kg/injection, schedule: Q01DX001 (ip), vehicle: other 101 % of control

O=[N+]([O-])c1cccc(/C(Cl)=C/CCl)c1
inactive: dose: 50.0 mg/kg/injection, schedule: Q01DX001 (ip), vehicle: Klucel (hydroxypropylcellulose) (HPC) 98 % of control | dose: 100.0 mg/kg/injection, schedule: Q01DX001 (ip), vehicle: Klucel (hydroxypropylcellulose) (HPC) 101 % of control | dose: 200.0 mg/kg/injection, schedule: Q01DX001 (ip), vehicle: Klucel (hydroxypropylcellulose) (HPC) 97 % of control

CC(=O)c1ccc(F)c(C)c1
inactive: dose: 100.0 mg/kg/injection, schedule: Q04DX003 (ip), vehicle: saline sonified 93 % of control | dose: 200.0 mg/kg/injection, schedule: Q04DX003 (ip), vehicle: saline sonified 97 % of control | dose: 400.0 mg/kg/injection, schedule: Q04DX003 (ip), vehicle: saline sonified 93 % of control

CCCCCCCCCCCCCCC(=O)c1ccccc1
inactive: [1] 100 % of control | [2] 105 % of control | [3] 102 % of control | [4] 102 % of control | [5] 95 % of control | [6] 104 % of control

CC(=O)N(C)C1=C(Sc2ccc(Cl)cc2)C(=O)c2ccccc2C1=O
inactive: dose: 75.0 mg/kg/injection, schedule: Q01DX001 (ip), vehicle: carboxymethylcellulose (CMC) 91 % of control | dose: 150.0 mg/kg/injection, schedule: Q01DX001 (ip), vehicle: carboxymethylcellulose (CMC) 88 % of control

Nc1cccc(OCCc2ccccc2)c1
inactive: dose: 100.0 mg/kg/injection, schedule: Q01DX001 (ip), vehicle: saline with Tween-80 96 % of control | dose: 200.0 mg/kg/injection, schedule: Q01DX001 (ip), vehicle: saline with Tween-80 94 % of control | dose: 400.0 mg/kg/injection, schedule: Q01DX001 (ip), vehicle: saline with Tween-80 96 % of control

COc1cc2c(cc1OC)C1c3cc(OC)c(OC)cc3CC(=O)N1CC2 (stereo not drawn)
inactive: [9] 87 % of control | [10] 104 % of control | [11] 100 % of control | dose: 200.0 mg/kg/injection, schedule: Q01DX009 (ip), vehicle: saline 102 % of control | [12] 96 % of control | dose: 400.0 mg/kg/injection, schedule: Q01DX009 (ip), vehicle: saline 98 % of control | [13] 95 % of control

CN(C)c1ncccc1O
inactive: [14] 95 % of control | [15] 101 % of control | [16] 106 % of control

CCOC(=O)/C(=C/c1ccc(OC)c(OC)c1)P(=O)(OCC)OCC
inactive: dose: 50.0 mg/kg/injection, schedule: Q01DX001 (ip), vehicle: saline 101 % of control | [14] 95 % of control

NC(=O)C1C(=O)c2cccc3c2C1(Br)C(Br)CCC3 (stereo not drawn)
inactive: [14] 93 % of control

N=C(N)SCCCCSC(=N)N
inactive: dose: 25.0 mg/kg/injection, schedule: Q01DX009 (ip), vehicle: saline 92 % of control | [9] 97 % of control | [10] 94 % of control and 106 % of control

Clc1ccccc1Nc1ccnc(SCc2ccccc2)n1
inactive: dose: 25.0 mg/kg/injection, schedule: Q01DX001 (ip), vehicle: DMSO 93 % of control | dose: 25.0 mg/kg/injection, schedule: Q04DX003 (ip), vehicle: DMSO 96 % of control | dose: 50.0 mg/kg/injection, schedule: Q01DX001 (ip), vehicle: DMSO 100 % of control | dose: 50.0 mg/kg/injection, schedule: Q04DX003 (ip), vehicle: DMSO 95 % of control | dose: 100.0 mg/kg/injection, schedule: Q01DX001 (ip), vehicle: DMSO 88 % of control and 92 % of control | dose: 100.0 mg/kg/injection, schedule: Q04DX003 (ip), vehicle: DMSO 93 % of control

CN1CCC2(CC1)C(=O)N(Cc1ccccc1)C(=O)C2c1ccccc1 (stereo not drawn)
inactive: dose: 25.0 mg/kg/injection, schedule: Q04DX002 (ip), vehicle: saline 108 % of control | dose: 100.0 mg/kg/injection, schedule: Q04DX002 (ip), vehicle: Klucel (hydroxypropylcellulose) (HPC) 93 % of control | dose: 100.0 mg/kg/injection, schedule: Q04DX002 (ip), vehicle: saline 104 % of control and 118 % of control | dose: 200.0 mg/kg/injection, schedule: Q04DX002 (ip), vehicle: Klucel (hydroxypropylcellulose) (HPC) 86 % of control

C[n+]1c(-c2ccc(Cl)c(Cl)c2)c2cc([N+](=O)[O-])ccc2c2ccccc21
inactive: [11] 95 % of control | [12] 93 % of control | [13] 97 % of control

O=C(O)c1c(-c2ccccc2)[nH]c2cc(Cl)ccc2c1=O
inactive: dose: 50.0 mg/kg/injection, schedule: Q01DX001 (ip), vehicle: carboxymethylcellulose (CMC) 113 % of control | dose: 100.0 mg/kg/injection, schedule: Q01DX001 (ip), vehicle: carboxymethylcellulose (CMC) 113 % of control | [1] 112 % of control | [2] 104 % of control | dose: 200.0 mg/kg/injection, schedule: Q01DX001 (ip), vehicle: carboxymethylcellulose (CMC) 107 % of control | [3] 106 % of control | [4] 107 % of control | [6] 104 % of control

CCCCNS(=O)(=O)c1ccc(NC(=O)c2ccc3ccccc3c2O)c([N+](=O)[O-])c1
inactive: [17] 90 % of control | [18] 88 % of control | [19] 88 % of control

Cc1cccc(Nc2cc(Cl)nc(N)n2)c1
inactive: dose: 100.0 mg/kg/injection, schedule: Q01DX Z (ip), vehicle: methylcellulose (MC) 97 % of control | dose: 200.0 mg/kg/injection, schedule: Q01DX Z (ip), vehicle: methylcellulose (MC) 89 % of control

CC1(C)N=C(N)N=C(N)N1c1ccc(CCNS(=O)(=O)c2ccc(S(=O)(=O)F)cc2)cc1
inactive: dose: 0.8 mg/kg/injection, schedule: Q01DX009 (ip), vehicle: saline 97 % of control | dose: 4.0 mg/kg/injection, schedule: Q01DX009 (ip), vehicle: saline 104 % of control | dose: 20.0 mg/kg/injection, schedule: Q01DX009 (ip), vehicle: saline 103 % of control | [10] 103 % of control | dose: 500.0 mg/kg/injection, schedule: Q01DX009 (ip), vehicle: saline 108 % of control

COc1ccc(C=Nc2ccccc2N=Cc2ccc(OC)c(OC)c2)cc1OC
inactive: dose: 100.0 mg/kg/injection, schedule: Q01DX009 (ip), vehicle: saline with Tween-80 106 % of control | [17] 96 % of control | dose: 200.0 mg/kg/injection, schedule: Q01DX009 (ip), vehicle: saline with Tween-80 97 % of control | [18] 93 % of control | dose: 400.0 mg/kg/injection, schedule: Q01DX009 (ip), vehicle: saline with Tween-80 106 % of control | [19] 93 % of control

N=C(N)C1CCCCC1
inactive: [14] 95 % of control | [15] 97 % of control | [16] 100 % of control

CCOC(=O)C(=O)Nc1ccccc1-c1ccccc1
inactive: [11] 102 % of control | [12] 98 % of control | [13] 101 % of control
